Literature values as cited in the CATMoS acute toxicity set (Mansouri et al. 2021).
Several values for one entry are separate records, joined by “and”; a condition that tells them apart may be missing. Equal entries are not always repeated.

Assay: rat acute oral toxicity
Conditions: in vivo

| SMILES | LD50 |
| --- | --- |
| C[C@H](NCC=C(c1ccsc1)c1ccsc1)[C@H](O)c1ccccc1 | 6600 mg/kg |
| CC(C)(C)S | 4730 mg/kg |
| CCOC(=S)C=Cc1ccc2c(c1)OCO2 | 940 mg/kg |
| COP(=O)(OC)C(OC(C)=O)=C(Cl)Cl | 300 mg/kg |
| CC(C)(C)OC(=O)N1CC(=O)C1 | 2500 mg/kg |
| C[C@H](CCC(=O)O)[C@H]1CC[C@H]2[C@@H]3[C@H](O)C[C@@H]4C[C@H](O)CC[C@]4(C)[C@H]3CC[C@]12C | 4000 mg/kg |
| O=C(O)c1ccccc1Nc1c(Cl)cc(Cl)c2ccccc12 | 8500 mg/kg |
| CN(C)S(=O)(=O)CCCCCNC(=O)N(CCCl)N=O | 250 mg/kg |
| CCOC(CN1CCN(CC(C)C(=O)c2ccccc2)CC1)c1ccccc1 (stereo not given) | 763 mg/kg |
| O=C(OOC(=O)c1ccccc1)c1ccccc1 | 7710 mg/kg |
| CCCCNCC(O)COc1ccc(-c2c(-c3ccccc3)c(=O)oc3cc(OC)ccc23)cc1 (stereo not given) | 500 mg/kg |
| O=C(O)CCCN1C(=O)c2cccc3cccc(c23)C1=O | 4000 mg/kg |
| CCCCCCCC/C=C\CCCCCCCC[N+](C)(C)CC | 500 mg/kg |
| CNC(=O)ON=C1CSC(C)(C)S1 | 2 mg/kg |
| O=C(O)c1ccccc1Nc1cc(Cl)ccc1C(=O)O | 1150 mg/kg |
| CCCCCCCCCCCCN(CCC(=O)O)CCC(=O)O | 31300 mg/kg |
| CCCCCCCCCC(=O)NP(=O)(OC)SC (stereo not given) | 125 mg/kg |
| O=S(=O)(Cl)c1ccccc1Cl | 7500 mg/kg |
| CC(C)C(=O)Nc1ccc([N+](=O)[O-])c(C(F)(F)F)c1 | 787 mg/kg |
| CC(C(=O)O)c1cccc(Oc2ccccc2)c1 (stereo not given) | 800 mg/kg |
| CCOC(C1=NCC(OC)CN1)c1ccccc1 (stereo not given) | 875 mg/kg |
| CN(C)[C@@H]1C(O)=C(C(N)=O)C(=O)[C@@]2(O)C(O)=C3C(=O)c4c(O)cccc4[C@@](C)(O)[C@H]3[C@H](O)[C@@H]12 | 4800 mg/kg |
| CC(O)C1CCCCC1 (stereo not given) | 2100 mg/kg |
| C=C(CCC)C1C(C=C(C)C)C1(C)C (stereo not given) | 2600 mg/kg |
| COc1ccc(C(N)=O)cc1C(=O)NCc1cccnc1 | 1720 mg/kg |

| SMILES | LD50 |
| --- | --- |
| OC1CC2CC1C1CC3OC3C21 (stereo not given) | 3130 mg/kg |
| NC(CCN1CCCCCC1)=NO | 500 mg/kg |
| Cc1c(CC(=O)O)c2ccccc2n1C(=O)c1ccccc1 | 362 mg/kg |
| CNC(=O)Oc1ccc(NC(=O)C(F)(F)Cl)c(C)c1 | 48.5 mg/kg |
| C1CNCCNC1 | 2830 mg/kg |
| CCNc1nc(Cl)nc(NCC)n1 | 971 mg/kg |
| CCOC(=O)CSP(=O)(OCC)OCC | 45 mg/kg |
| CCCCCOC(CBr)c1ccc(C2CCCCC2)cc1 (stereo not given) | 250 mg/kg |
| CNC(=S)/C=C/c1ccc2c(c1)OCO2 | 230 mg/kg |
| O=C1OC(=O)c2ccc(Cl)c3cccc1c23 | 3460 mg/kg |
| CC1(C)CC2(NC(=O)N(CCCN3CCC(O)CC3)C2=O)c2cc(F)ccc2O1 (stereo not given) | 780 mg/kg |
| COP(=S)(OC)SCn1nc(Cl)c(C)cc1=O | 65 mg/kg |
| C[Si](C)(C)N=C=N[Si](C)(C)C | 1730 mg/kg |
| S=C(NC1CCCCC1)NC1CCCCC1 | 500 mg/kg |
| N#CC(C#N)=C1SCS1 | 75 mg/kg |
| c1ccc(CC2=NCCN2)cc1 | 1200 mg/kg |
| CNC(=O)Oc1cc(C(C)C)ccc1Cl | 21 mg/kg |
| CCCCCCS | 1250 mg/kg |
| CC(C(=O)O)c1ccc(-n2cc3ccccc3n2)cc1 (stereo not given) | 1550 mg/kg |
| CCOc1ccccc1C(N)=O | 2200 mg/kg |
| CCCCC(CC)C(O)C(=O)O (stereo not given) | 3400 mg/kg |
| COc1ccccc1NC(=O)CC(=O)c1ccccc1 | 1600 mg/kg |
| CCOC(=O)C=CN(C)C | 4500 mg/kg |
| CCOP(=S)(OCC)SC(CC(=O)OCSC)C(=O)OCSC (stereo not given) | 3.7 mg/kg |
| ClCC1C(CCl)C2(Cl)C(Cl)=C(Cl)C1(Cl)C2(Cl)Cl (stereo not given) | 200 mg/kg |

| SMILES | LD50 |
| --- | --- |
| CC[N+]1(C)CCCC(OC(=O)C(O)(c2ccccc2)c2ccccc2)C1 (stereo not given) | 916 mg/kg and 850 mg/kg |
| CC1=CC(=O)OC1=O | 2600 mg/kg |
| C=CSC=C | 170 mg/kg |
| CN(Cc1cc(Br)cc(Br)c1N)C1CCCCC1 | 6000 mg/kg |
| CO[Si](CCCCCCCCCC[Si](OC)(OC)OC)(OC)OC | 2200 mg/kg |
| CC1=CCC(C(C)C)C=C1 (stereo not given) | 5700 mg/kg |
| COP(=O)(OC)OC1=C(Cl)C2C=CCC12 (stereo not given) | 96 mg/kg |
| CC[N+](CC)(CC)Cc1ccccc1 | 2220 mg/kg |
| FC(F)(F)C(F)(Br)Br | 54600 mg/kg |
| CC(C)Nc1nc(Cl)nc(NC(C)C)n1 | 3840 mg/kg |
| Cl[Si](Cl)(Cl)C1CC=CCC1 (stereo not given) | 2830 mg/kg |
| COc1cc2c(cc1OC)[C@@H]1C(=O)c3ccc4c(c3O[C@@H]1CO2)C[C@H](C(C)C)O4 | 2500 mg/kg |
| CC(C)(CO)S(C)(=O)=O | 11300 mg/kg |
| CCCCCCCCCCCCCC[n+]1ccc(C)cc1 | 250 mg/kg |
| CCOC(=S)SCC#N | 210 mg/kg |
| N#CC(OC1OC(COC2OC(CO)C(O)C(O)C2O)C(O)C(O)C1O)c1ccccc1 (stereo not given) | 517 mg/kg |
| C#CCCl | 165 mg/kg |
| CCCc1ccn[nH]1 | 616 mg/kg |
| CCCc1ccc(O)c(OC)c1 | 2600 mg/kg |
| O=C(Cc1ccc2c(c1)OCc1ccccc1C2=O)OCC(O)CO (stereo not given) | 95 mg/kg |
| CCSP(=O)(CCl)SCC | 35 mg/kg |
| COc1ccc2[nH]c(S(=O)Cc3ncc(C)c(OC)c3C)nc2c1 (stereo not given) | 2210 mg/kg |
| CN1C(=O)CN=C(c2ccccc2F)c2c1ccc(NC(=O)N1CCOCC1)c2Cl | 1250 mg/kg |
| N#Cc1cc([N+](=O)[O-])ccc1Cl | 3200 mg/kg |
| ClC(Cl)Cc1ccccc1 | 5500 mg/kg |

| SMILES | LD50 |
| --- | --- |
| CCCCN(CCCCO)N=O | 1800 mg/kg |
| OC(CBr)C(O)C(O)C(O)CBr (stereo not given) | 1000 mg/kg |
| CC1N(c2ccccc2)C(=O)c2ccccc2N1C(=O)CN1CCOCC1 (stereo not given) | 1710 mg/kg |
| CCc1c(C)[nH]c2c1C(=O)C1CN(C)CCC1C2 (stereo not given) | 220 mg/kg |
| O=C(O)[C@H](O)[C@@H](O)[C@H](O)[C@H](O)CO | 10400 mg/kg |
| CCOC(C1=NCC(CC)(CC)CN1)c1ccc(Cl)cc1 (stereo not given) | 375 mg/kg |
| CC(C)=NOC(=O)Nc1ccccc1 | 1540 mg/kg |
| CC(=O)N(CC(C)C(=O)O)c1c(I)cc(I)c(N)c1I (stereo not given) | 7100 mg/kg |
| CCOC(=O)C1=C(C)NC(C)=C(C(=O)OC)C1c1cccc(Cl)c1Cl (stereo not given) | 1050 mg/kg |
| CCCOC(C1=NCCCN1)c1ccccc1 (stereo not given) | 625 mg/kg |
| CCOC(=O)N(c1cccc(C(=O)c2ccccc2)c1)S(=O)(=O)C(F)(F)F | 4700 mg/kg |
| CC(C[N+](C)(C)C)OC(N)=O (stereo not given) | 1500 mg/kg |
| CCCOC(=O)COc1cccc(C(C)(C)C)c1 | 1800 mg/kg |
| CCCCCCOCCCCCC | 30900 mg/kg |
| C=CCOP(OCC=C)OCC=C | 178 mg/kg |
| CCC(=O)OC1(c2ccccc2)CCN(C)C1C (stereo not given) | 253 mg/kg |
| CCCCCCC#CC(=O)OC | 2220 mg/kg |
| CC(=O)OC1CCC(N2CCCCC2)CC1 (stereo not given) | 1950 mg/kg |
| ClCc1ccccn1 | 316 mg/kg |
| COc1cc2nc(N3CCN(C(=O)c4ccco4)CC3)nc(N)c2cc1OC | 1950 mg/kg |
| CCCCCCCC(C)=O | 3200 mg/kg |
| CCC1CCC(CC)O1 (stereo not given) | 3400 mg/kg |
| CN1C2CCC1CC(OC(=O)C(C)(CO)c1ccccc1)C2 (stereo not given) | 1100 mg/kg |
| CC(C)=CCCC(C)CC=O (stereo not given) | 2420 mg/kg and 7200 mg/kg |
| CN1CC[C@]23c4c5ccc(O)c4O[C@H]2[C@H](N=[N+]=[N-])CC[C@H]3[C@H]1C5 | 62 mg/kg |

| SMILES | LD50 |
| --- | --- |
| CC(C)C(=O)C(C)C | 3540 mg/kg |
| COP(=S)(OC)SCn1nc(Cl)c(Cl)cc1=O | 12000 mg/kg |
| CNCCON=C1c2ccccc2CCc2ccccc21 | 860 mg/kg |
| NCCCCN | 463 mg/kg |
| CC(=O)c1ccc(C(O)C(CO)NC(=O)C(Cl)Cl)cc1 (stereo not given) | 1100 mg/kg |
| CC(C)Cc1ccc(C(C)C(=O)O)cc1 (stereo not given) | 636 mg/kg |
| CCNC(C)CN1CCc2c(c(=O)oc3ccccc23)C1 (stereo not given) | 300 mg/kg |
| O=C(O)C1=CC(=C(c2ccc(O)c(C(=O)O)c2)c2ccc(O)c(C(=O)O)c2)C=CC1=O | 9000 mg/kg |
| C=Cc1ccc(CC)cn1 | 1230 mg/kg |
| CNC(=O)Oc1cccc2c1OC(C)(C)C2=O | 295 mg/kg |
| CCOC(=O)C(C(C)=O)P(=O)(OCC)OCC (stereo not given) | 176 mg/kg |
| C=CCc1ccc(OC(C)=O)c(OC)c1 | 1670 mg/kg |
| N#CC(Cl)=C(Cl)Cl | 62.5 mg/kg |
| C1COCCOCCOCCO1 | 2830 mg/kg |
| CN(C)N=Nc1ccc(F)cc1 | 326 mg/kg |
| O=[N+]([O-])c1cc(Cl)cc(-c2cc(Cl)cc([N+](=O)[O-])c2O)c1O | 10 mg/kg |
| CCOCCOCC(C)O (stereo not given) | 9330 mg/kg |
| COC(C)OC | 6500 mg/kg |
| C=Cc1ccc(C)nc1 | 1170 mg/kg |
| C[N+]1(CCF)[C@@H]2CC[C@H]1C[C@@H](OC(=O)C(O)(c1ccccc1)c1ccccc1)C2 (single isomer, unassigned) | 740 mg/kg |
| CCCCCCCCOC(CBr)c1ccc(C(C)(C)C)cc1 (stereo not given) | 250 mg/kg |
| S=C1NCCS1 | 300 mg/kg |
| CN1CCN(C2=Nc3cc(Cl)ccc3Nc3ccccc32)CC1 | 251 mg/kg |
| CC(=O)Nc1ccc2nc(C(F)(F)F)[nH]c2c1 | 23.8 mg/kg |
| C=C(C)C(=O)OCC1CCC2OC2C1 (stereo not given) | 2500 mg/kg |

| SMILES | LD50 |
| --- | --- |
| C=CC(Cl)=C(Cl)Cl | 680 mg/kg |
| O=C(O)c1cccc(Cl)n1 | 2180 mg/kg |
| CCCCCCCCCCCCCCCCCCN(C)C | 200 mg/kg |
| O=[N+]([O-])c1cc(C(F)(F)F)cc([N+](=O)[O-])c1Cl | 930 mg/kg |
| O=C(CCNNC(=O)c1ccncc1)NCc1ccccc1 | 1700 mg/kg |
| CC(C)N(C(=O)SCC(Cl)=CCl)C(C)C | 395 mg/kg |
| Cc1cccnc1-n1c(C)nc2ccccc2c1=O | 395 mg/kg |
| CC(Cl)COP(=O)(OCC(C)Cl)Oc1ccc([N+](=O)[O-])cc1 (stereo not given) | 173 mg/kg |
| CC(Cl)(C=O)CCl (stereo not given) | 1620 mg/kg |
| NCCN1CCNCC1 | 2140 mg/kg |
| CCCSCSP(=S)(OCC)OCC | 2.8 mg/kg |
| CCc1ccc(C)[n+](C(C)CCC(C)(C)CC(C)(C)C)c1 (stereo not given) | 540 mg/kg |
| COP(=O)(Oc1ccccc1)OC(Br)C(Cl)(Cl)Br (stereo not given) | 500 mg/kg |
| O=C(C=Cc1ccccc1)NO | 2140 mg/kg |
| CCNC1=Nc2ccc(Cl)cc2C(C)(c2ccccc2)O1 (stereo not given) | 1500 mg/kg |
| Cc1cc(OC(=O)N(C)C)nn1C(=O)N(C)C | 25 mg/kg |
| CNC(=O)ON=C1CCCC1(C)C#N (stereo not given) | 18 mg/kg |
| Cc1ccc2c(c1)c1c3n2CCNC3CCC1 (stereo not given) | 2060 mg/kg |
| COC(=O)[C@H]1[C@H]2C[C@@H]3c4[nH]c5cc(OC)ccc5c4CCN3C[C@H]2C[C@@H](OC(=O)c2cc(OC)c(OC)c(OC)c2)[C@@H]1OC | 420 mg/kg |
| CCCN(CCC)C(=O)C(CCC(=O)NCCCOC(=O)Cc1c(C)n(C(=O)c2ccc(Cl)cc2)c2ccc(OC)cc12)NC(=O)c1ccccc1 (stereo not given) | 370 mg/kg |
| CN(C)CCCN1c2ccccc2Sc2ccccc21 | 350 mg/kg and 400 mg/kg |
| CCN(CCN(C)C)c1ccccc1 | 1150 mg/kg |
| CCOC(=O)c1nocc1C(=O)c1ccccc1 | 1000 mg/kg |
| NCCCN1CCOCC1 | 3560 mg/kg |
| c1nnc(NCNc2nncs2)s1 | 260 mg/kg |
